ChEMBL document CHEMBL1201862, “PubChem BioAssay data set” (2004)
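Tested at 5 concentrations; 48 h exposure; 96-well plates; endpoints linearly interpolated, else capped at highest concentration. GI50 is the concentration that inhibits growth by half.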 Calls of active or inactive are those of the source. Cut-off read from the data, not from the text of the source: active = GI50 up to about 1.1 µM and inactive = higher.

Legend:
Test in all cases: NCI-60 cell line screen, 48 h
MOLT-4 = tested on: MOLT-4
CAKI-1 = tested on: CAKI-1
OVCAR-4 = tested on: OVCAR-4
M14 = tested on: M14
UACC-257 = tested on: UACC-257
SK-MEL-5 = tested on: SK-MEL-5
NCI-H460 = tested on: NCI-H460
A549 = tested on: A549
EKVX = tested on: EKVX
SR = tested on: SR
HCT-116 = tested on: HCT-116
HCC 2998 = tested on: HCC 2998
RXF 393 = tested on: RXF 393
K562 = tested on: K562
LOX IMVI = tested on: LOX IMVI
DU-145 = tested on: DU-145
A498 = tested on: A498
SNB-75 = tested on: SNB-75
OVCAR-5 = tested on: OVCAR-5
SW-620 = tested on: SW-620

Measured: GI50

N=C(N)NS(=O)(=O)c1ccc(Nc2c3ccccc3nc3c(C(=O)NCCO)cccc23)cc1
active: MOLT-4 0.0885 µM | CAKI-1 0.205 µM | OVCAR-4 0.261 µM | M14 0.183 µM | UACC-257 0.243 µM | SK-MEL-5 0.142 µM | NCI-H460 0.127 µM | A549 0.157 µM | EKVX 0.248 µM | SR 0.136 µM | HCT-116 0.223 µM | HCC 2998 0.19 µM | RXF 393 0.173 µM | K562 0.216 µM | LOX IMVI 0.143 µM | DU-145 0.214 µM | A498 0.13 µM | OVCAR-5 0.244 µM | SW-620 0.188 µM
inactive: SNB-75 22.6 µM

Cc1ccc(C(=O)N/N=C(\N=N\c2cccc([N+](=O)[O-])c2)c2ccc(N(CCC#N)CCC#N)cc2C)cc1
inactive: MOLT-4 24 µM | CAKI-1 38.9 µM | OVCAR-4 23.7 µM | M14 33.4 µM | UACC-257 10.6 µM | SK-MEL-5 13.6 µM | NCI-H460 29 µM | A549 31.9 µM | EKVX 25.5 µM | SR 21.6 µM | HCT-116 28.4 µM | HCC 2998 30.9 µM | RXF 393 8.75 µM | K562 22.8 µM | LOX IMVI 24.5 µM | DU-145 29 µM | A498 25.8 µM | SNB-75 21.1 µM | OVCAR-5 59.4 µM | SW-620 38.7 µM

O=C(O)C1C(Br)(c2ccccc2)C1(Br)c1ccccc1 (stereo not given)
inactive: MOLT-4 15.2 µM | CAKI-1 23.9 µM | OVCAR-4 28.7 µM | M14 48.2 µM | UACC-257 48.9 µM | SK-MEL-5 28.8 µM | NCI-H460 14.2 µM | A549 39 µM | EKVX 86.7 µM | SR 2.88 µM | HCT-116 39.7 µM | HCC 2998 22.6 µM | RXF 393 19.5 µM | K562 20.1 µM | LOX IMVI 22.2 µM | DU-145 > 100 µM | A498 25.5 µM | SNB-75 35.3 µM | OVCAR-5 58.9 µM | SW-620 31.4 µM

COc1ccc2c(c1)CCCc1c-2nc2ccccc2c1N
inactive: MOLT-4 8.59 µM | CAKI-1 9.02 µM | OVCAR-4 12.6 µM | M14 9.1 µM | UACC-257 2.45 µM | SK-MEL-5 3.72 µM | NCI-H460 4.44 µM | A549 12.9 µM | EKVX 6.28 µM | SR 2.57 µM | HCT-116 5.81 µM | HCC 2998 1.87 µM | RXF 393 4.72 µM | K562 5.14 µM | LOX IMVI 8.57 µM | DU-145 13.4 µM | A498 8.24 µM | SNB-75 10.7 µM | OVCAR-5 10.2 µM | SW-620 10.7 µM

S=C(NCc1ccccn1)N/N=C/c1ccccn1
inactive: SNB-75 3.05 µM
active: MOLT-4 < 0.01 µM | CAKI-1 < 0.01 µM | OVCAR-4 < 0.0371 µM | M14 < 0.01 µM | UACC-257 < 0.01 µM | SK-MEL-5 0.0184 µM | NCI-H460 0.0556 µM | A549 < 0.0188 µM | EKVX < 0.0194 µM | SR < 0.01 µM | HCT-116 < 0.01 µM | HCC 2998 0.229 µM | RXF 393 < 0.0378 µM | K562 < 0.01 µM | LOX IMVI < 0.0167 µM | DU-145 0.268 µM | A498 < 0.0113 µM | OVCAR-5 < 0.01 µM | SW-620 < 0.01 µM
